Data as given in publication PMC5392334, “Discovery and characterization of a novel irreversible EGFR mutants selective and potent kinase inhibitor CHMFL-EGFR-26 with a distinct binding mode” (Oncotarget, 2017).

Experiments:
KIT(V559D,T670I) = target: T1, KIT(V559D,T670I) (Homo sapiens, UniProt P10721, T670I/V559D); assay: KinomeScan; type: binding; conditions: read-out: % control
T1 construct: purchased DiscoveRx KINOMEscan

EGFR(E746-A750del) = target: T2, EGFR(E746-A750del) (Homo sapiens, UniProt P00533, DEL746-750); assay: KinomeScan; type: binding; conditions: read-out: % control
T2 construct: purchased DiscoveRx KINOMEscan

ARK5 = target: T3, ARK5 (Homo sapiens, UniProt O60285); assay: KinomeScan; type: binding; conditions: read-out: % control
T3 construct: purchased DiscoveRx KINOMEscan

ULK1 = target: T4, ULK1 (Homo sapiens, UniProt O75385); assay: KinomeScan; type: binding; conditions: read-out: % control
T4 construct: purchased DiscoveRx KINOMEscan

RET = target: T5, RET (Homo sapiens, UniProt P07949); assay: KinomeScan; type: binding; conditions: read-out: % control
T5 construct: purchased DiscoveRx KINOMEscan

MELK = target: T6, MELK (Homo sapiens, UniProt Q14680); assay: KinomeScan; type: binding; conditions: read-out: % control
T6 construct: purchased DiscoveRx KINOMEscan

DAPK2 = target: T7, DAPK2 (Homo sapiens, UniProt Q9UIK4); assay: KinomeScan; type: binding; conditions: read-out: % control
T7 construct: purchased DiscoveRx KINOMEscan

[1] = target: T8, RSK1(Kin.Dom.1-N-terminal) (Homo sapiens, UniProt Q15418); assay: KinomeScan; type: binding; conditions: read-out: % control
T8 construct: RSK1(Kin.Dom.1-N-terminal); purchased DiscoveRx KINOMEscan

HER2 = target: T9, HER2 (Homo sapiens, UniProt P04626); assay: Invitrogen SelectScreen biochemical assay
T9 construct: purchased Invitrogen (SelectScreen service)
Source text: (§1) In order to better understand CHMFL-EGFR-26's selectivity, we then tested it in DiscoveRx's KinomeScan™ assay. […] Given the fact that KinomeScan™ is a binding assay and sometimes cannot truly reflect the compound inhibitory activity, we then used Invitrogen SelectScreen® assay to test these potential off-targets (Supplementary Table 2). […] This was not surprising because EGFR, JAK3, HER2, HER4 and TEC family kinases (BTK, BLK and BMX) all share a similar cysteine residue at the identical position analogous to Cys 797 in EGFR in the hinge binding area.
(§2) www.impactjournals.com/oncotarget/ Oncotarget, Supplementary Materials 2017
(§3) KinomeScan Profiling by invitrogen SelectScreen® assay
(§4) (1 picture or pasted object on this page, not shown here)

BLK = target: T10, BLK (Homo sapiens, UniProt P51451); assay: Invitrogen SelectScreen biochemical assay
T10 construct: purchased Invitrogen (SelectScreen service)
Source text: as §1, §2, §3, §4

MTOR = target: T11, MTOR (Homo sapiens, UniProt P42345); assay: KinomeScan; type: binding; conditions: read-out: % control
T11 construct: purchased DiscoveRx KINOMEscan

PDPK1 = target: T12, PDPK1 (Homo sapiens, UniProt O15530); assay: KinomeScan; type: binding; conditions: read-out: % control
T12 construct: purchased DiscoveRx KINOMEscan

MKNK2 = target: T13, MKNK2 (Homo sapiens, UniProt Q9HBH9); assay: KinomeScan; type: binding; conditions: read-out: % control
T13 construct: purchased DiscoveRx KINOMEscan

ICK = target: T14, ICK (Homo sapiens, UniProt Q9UPZ9); assay: KinomeScan; type: binding; conditions: read-out: % control
T14 construct: purchased DiscoveRx KINOMEscan

TRKC = target: T15, TRKC (Homo sapiens, UniProt Q16288); assay: KinomeScan; type: binding; conditions: read-out: % control
T15 construct: purchased DiscoveRx KINOMEscan

CDC2L1 = target: T16, CDC2L1 (Homo sapiens, UniProt P21127); assay: KinomeScan; type: binding; conditions: read-out: % control
T16 construct: purchased DiscoveRx KINOMEscan

PIP5K1C = target: T17, PIP5K1C (Homo sapiens, UniProt O60331); assay: KinomeScan; type: binding; conditions: read-out: % control
T17 construct: purchased DiscoveRx KINOMEscan

LTK = target: T18, LTK (Homo sapiens, UniProt P29376); assay: KinomeScan; type: binding; conditions: read-out: % control
T18 construct: purchased DiscoveRx KINOMEscan

PIK3CA(Q546K) = target: T19, PIK3CA(Q546K) (Homo sapiens, UniProt P42336, Q546K); assay: KinomeScan; type: binding; conditions: read-out: % control
T19 construct: purchased DiscoveRx KINOMEscan

PIK3CA(H1047Y) = target: T20, PIK3CA(H1047Y) (Homo sapiens, UniProt P42336, H1047Y); assay: KinomeScan; type: binding; conditions: read-out: % control
T20 construct: purchased DiscoveRx KINOMEscan

FLT3(ITD,D835V) = assay: KinomeScan; type: binding; conditions: 1μM
GRK3 = target: T21, GRK3 (Homo sapiens, UniProt P35626); assay: KinomeScan; type: binding; conditions: read-out: % control
T21 construct: purchased DiscoveRx KINOMEscan

HUNK = target: T22, HUNK (Homo sapiens, UniProt P57058); assay: KinomeScan; type: binding; conditions: read-out: % control
T22 construct: purchased DiscoveRx KINOMEscan

MAP3K3 = target: T23, MAP3K3 (Homo sapiens, UniProt Q99759); assay: KinomeScan; type: binding; conditions: read-out: % control
T23 construct: purchased DiscoveRx KINOMEscan

DLK = target: T24, DLK (Homo sapiens, UniProt Q12852); assay: KinomeScan; type: binding; conditions: read-out: % control
T24 construct: purchased DiscoveRx KINOMEscan

BRAF(V600E) = target: T25, BRAF(V600E) (Homo sapiens, UniProt P15056, V600E); assay: KinomeScan; type: binding; conditions: read-out: % control
T25 construct: purchased DiscoveRx KINOMEscan

DDR1 = target: T26, DDR1 (Homo sapiens, UniProt Q08345); assay: KinomeScan; type: binding; conditions: read-out: % control
T26 construct: purchased DiscoveRx KINOMEscan

[2] = target: T27, TYK2(JH1domain-catalytic) (Homo sapiens, UniProt P29597); assay: KinomeScan; type: binding; conditions: read-out: % control
T27 construct: TYK2(JH1domain-catalytic); purchased DiscoveRx KINOMEscan

HIPK2 = target: T28, HIPK2 (Homo sapiens, UniProt Q9H2X6); assay: KinomeScan; type: binding; conditions: read-out: % control
T28 construct: purchased DiscoveRx KINOMEscan

[3] = target: T29, ABL1(F317I)-phosphorylated (Homo sapiens, UniProt P00519, F317I); assay: KinomeScan; type: binding; conditions: read-out: % control
T29 construct: purchased DiscoveRx KINOMEscan

BMPR2 = target: T30, BMPR2 (Homo sapiens, UniProt Q13873); assay: KinomeScan; type: binding; conditions: read-out: % control
T30 construct: purchased DiscoveRx KINOMEscan

ERK4 = target: T31, ERK4 (Homo sapiens, UniProt P31152); assay: KinomeScan; type: binding; conditions: read-out: % control
T31 construct: purchased DiscoveRx KINOMEscan

NEK1 = target: T32, NEK1 (Homo sapiens, UniProt Q96PY6); assay: KinomeScan; type: binding; conditions: read-out: % control
T32 construct: purchased DiscoveRx KINOMEscan

HPK1 = target: T33, HPK1 (Homo sapiens, UniProt Q92918); assay: KinomeScan; type: binding; conditions: read-out: % control
T33 construct: purchased DiscoveRx KINOMEscan

FAK = target: T34, FAK (Homo sapiens, UniProt Q05397); assay: KinomeScan; type: binding; conditions: read-out: % control
T34 construct: purchased DiscoveRx KINOMEscan

WNK4 = target: T35, WNK4 (Homo sapiens, UniProt Q96J92); assay: KinomeScan; type: binding; conditions: read-out: % control
T35 construct: purchased DiscoveRx KINOMEscan

DCAMKL3 = target: T36, DCAMKL3 (Homo sapiens, UniProt Q9C098); assay: KinomeScan; type: binding; conditions: read-out: % control
T36 construct: purchased DiscoveRx KINOMEscan

PFTAIRE2 = target: T37, PFTAIRE2 (Homo sapiens, UniProt Q96Q40); assay: KinomeScan; type: binding; conditions: read-out: % control
T37 construct: purchased DiscoveRx KINOMEscan

T21 sequence (P35626 whole entry): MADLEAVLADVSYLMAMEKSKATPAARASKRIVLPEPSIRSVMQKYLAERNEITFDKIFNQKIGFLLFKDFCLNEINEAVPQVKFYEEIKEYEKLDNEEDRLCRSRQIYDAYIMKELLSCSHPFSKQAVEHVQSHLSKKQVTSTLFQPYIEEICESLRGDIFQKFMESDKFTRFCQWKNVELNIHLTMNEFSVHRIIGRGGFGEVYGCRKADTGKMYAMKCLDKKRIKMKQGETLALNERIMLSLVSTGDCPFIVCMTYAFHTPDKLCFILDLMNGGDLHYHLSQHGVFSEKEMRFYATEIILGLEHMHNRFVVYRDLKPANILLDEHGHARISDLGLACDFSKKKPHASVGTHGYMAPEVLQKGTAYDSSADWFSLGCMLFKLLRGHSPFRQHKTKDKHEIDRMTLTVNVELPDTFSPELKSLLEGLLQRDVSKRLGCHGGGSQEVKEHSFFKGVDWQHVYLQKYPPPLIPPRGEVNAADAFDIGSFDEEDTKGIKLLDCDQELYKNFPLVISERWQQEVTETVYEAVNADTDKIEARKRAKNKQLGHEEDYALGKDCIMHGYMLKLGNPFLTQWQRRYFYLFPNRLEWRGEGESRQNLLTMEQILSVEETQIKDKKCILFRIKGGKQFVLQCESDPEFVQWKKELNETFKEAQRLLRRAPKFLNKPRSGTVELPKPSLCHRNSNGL
T12 sequence (O15530 whole entry): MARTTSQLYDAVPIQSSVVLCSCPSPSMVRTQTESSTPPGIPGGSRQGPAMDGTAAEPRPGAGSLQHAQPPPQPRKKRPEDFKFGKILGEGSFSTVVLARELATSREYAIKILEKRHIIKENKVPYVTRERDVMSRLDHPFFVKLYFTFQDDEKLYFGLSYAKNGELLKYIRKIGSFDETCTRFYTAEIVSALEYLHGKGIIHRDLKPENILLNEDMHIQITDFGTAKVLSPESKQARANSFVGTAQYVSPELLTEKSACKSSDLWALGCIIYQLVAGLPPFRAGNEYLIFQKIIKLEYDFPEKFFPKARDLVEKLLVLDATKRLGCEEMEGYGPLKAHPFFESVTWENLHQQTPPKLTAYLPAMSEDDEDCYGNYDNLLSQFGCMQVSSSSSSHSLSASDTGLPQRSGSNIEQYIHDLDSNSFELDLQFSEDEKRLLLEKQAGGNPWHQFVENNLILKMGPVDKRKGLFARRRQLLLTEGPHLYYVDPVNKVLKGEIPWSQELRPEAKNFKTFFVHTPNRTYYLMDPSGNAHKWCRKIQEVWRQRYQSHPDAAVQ
T15 sequence (Q16288 32-839): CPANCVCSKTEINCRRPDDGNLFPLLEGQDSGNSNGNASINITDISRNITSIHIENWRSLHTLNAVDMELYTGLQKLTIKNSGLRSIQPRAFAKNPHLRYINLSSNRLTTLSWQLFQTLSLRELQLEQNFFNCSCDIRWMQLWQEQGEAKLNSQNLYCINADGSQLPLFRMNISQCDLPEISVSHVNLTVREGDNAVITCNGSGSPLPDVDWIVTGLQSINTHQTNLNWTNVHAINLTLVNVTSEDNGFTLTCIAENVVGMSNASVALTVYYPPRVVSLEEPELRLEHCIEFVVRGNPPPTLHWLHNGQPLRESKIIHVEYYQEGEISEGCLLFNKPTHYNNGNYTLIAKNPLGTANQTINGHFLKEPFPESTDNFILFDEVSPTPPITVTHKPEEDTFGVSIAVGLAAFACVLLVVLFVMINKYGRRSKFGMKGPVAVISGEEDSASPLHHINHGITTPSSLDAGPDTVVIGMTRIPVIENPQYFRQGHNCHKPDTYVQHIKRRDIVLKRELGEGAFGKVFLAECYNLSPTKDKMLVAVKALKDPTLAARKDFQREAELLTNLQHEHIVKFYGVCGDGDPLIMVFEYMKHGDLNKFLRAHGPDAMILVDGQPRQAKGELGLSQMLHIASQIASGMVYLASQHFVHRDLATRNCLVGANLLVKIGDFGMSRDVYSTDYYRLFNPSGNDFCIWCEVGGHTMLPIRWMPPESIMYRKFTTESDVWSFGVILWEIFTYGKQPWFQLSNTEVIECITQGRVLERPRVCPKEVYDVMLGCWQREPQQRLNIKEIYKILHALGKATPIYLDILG
T34 sequence (Q05397 whole entry): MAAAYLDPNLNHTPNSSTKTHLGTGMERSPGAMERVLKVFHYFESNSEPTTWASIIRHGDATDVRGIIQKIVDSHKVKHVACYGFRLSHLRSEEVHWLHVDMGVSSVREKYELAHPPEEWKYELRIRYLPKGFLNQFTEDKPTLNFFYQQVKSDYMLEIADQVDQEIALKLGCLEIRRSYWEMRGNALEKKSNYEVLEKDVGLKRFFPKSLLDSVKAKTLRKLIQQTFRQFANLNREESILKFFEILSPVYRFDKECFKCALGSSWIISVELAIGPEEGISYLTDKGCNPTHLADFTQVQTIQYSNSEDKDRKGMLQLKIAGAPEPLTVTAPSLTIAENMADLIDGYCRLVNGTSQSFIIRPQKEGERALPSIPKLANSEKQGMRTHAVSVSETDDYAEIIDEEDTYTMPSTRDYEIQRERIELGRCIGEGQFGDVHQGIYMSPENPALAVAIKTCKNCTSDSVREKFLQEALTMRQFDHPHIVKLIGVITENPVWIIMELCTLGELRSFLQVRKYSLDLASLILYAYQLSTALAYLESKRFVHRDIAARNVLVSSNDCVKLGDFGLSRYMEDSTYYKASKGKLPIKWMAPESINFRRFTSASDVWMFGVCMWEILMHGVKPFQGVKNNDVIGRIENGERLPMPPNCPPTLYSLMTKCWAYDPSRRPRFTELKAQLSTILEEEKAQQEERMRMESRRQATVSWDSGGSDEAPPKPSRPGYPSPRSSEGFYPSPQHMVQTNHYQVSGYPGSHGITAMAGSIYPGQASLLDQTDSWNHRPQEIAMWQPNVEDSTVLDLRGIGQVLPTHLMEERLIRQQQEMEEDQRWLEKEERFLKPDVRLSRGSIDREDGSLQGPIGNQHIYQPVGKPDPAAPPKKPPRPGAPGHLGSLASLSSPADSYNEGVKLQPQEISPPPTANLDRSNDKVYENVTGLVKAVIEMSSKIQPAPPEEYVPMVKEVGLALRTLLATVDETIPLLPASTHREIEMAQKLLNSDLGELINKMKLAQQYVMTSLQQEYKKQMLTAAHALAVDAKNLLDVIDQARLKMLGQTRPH
T3 sequence (O60285 whole entry): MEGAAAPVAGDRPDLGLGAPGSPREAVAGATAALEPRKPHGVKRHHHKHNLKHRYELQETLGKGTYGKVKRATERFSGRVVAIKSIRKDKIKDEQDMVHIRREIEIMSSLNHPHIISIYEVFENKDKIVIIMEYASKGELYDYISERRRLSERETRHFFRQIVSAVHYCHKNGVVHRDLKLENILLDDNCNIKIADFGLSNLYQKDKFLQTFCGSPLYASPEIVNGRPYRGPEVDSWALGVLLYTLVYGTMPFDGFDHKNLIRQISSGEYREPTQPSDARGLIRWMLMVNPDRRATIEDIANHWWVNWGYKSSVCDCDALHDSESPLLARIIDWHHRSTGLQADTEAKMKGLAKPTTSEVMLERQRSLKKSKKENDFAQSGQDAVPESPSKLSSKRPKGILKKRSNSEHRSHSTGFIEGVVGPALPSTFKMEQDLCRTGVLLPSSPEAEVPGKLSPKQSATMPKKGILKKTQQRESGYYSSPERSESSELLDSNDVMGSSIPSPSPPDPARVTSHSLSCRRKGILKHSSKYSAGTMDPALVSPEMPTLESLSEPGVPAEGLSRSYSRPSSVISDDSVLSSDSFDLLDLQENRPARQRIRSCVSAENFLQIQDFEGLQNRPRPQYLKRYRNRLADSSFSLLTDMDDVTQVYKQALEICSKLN
T30 sequence (Q13873 27-1038): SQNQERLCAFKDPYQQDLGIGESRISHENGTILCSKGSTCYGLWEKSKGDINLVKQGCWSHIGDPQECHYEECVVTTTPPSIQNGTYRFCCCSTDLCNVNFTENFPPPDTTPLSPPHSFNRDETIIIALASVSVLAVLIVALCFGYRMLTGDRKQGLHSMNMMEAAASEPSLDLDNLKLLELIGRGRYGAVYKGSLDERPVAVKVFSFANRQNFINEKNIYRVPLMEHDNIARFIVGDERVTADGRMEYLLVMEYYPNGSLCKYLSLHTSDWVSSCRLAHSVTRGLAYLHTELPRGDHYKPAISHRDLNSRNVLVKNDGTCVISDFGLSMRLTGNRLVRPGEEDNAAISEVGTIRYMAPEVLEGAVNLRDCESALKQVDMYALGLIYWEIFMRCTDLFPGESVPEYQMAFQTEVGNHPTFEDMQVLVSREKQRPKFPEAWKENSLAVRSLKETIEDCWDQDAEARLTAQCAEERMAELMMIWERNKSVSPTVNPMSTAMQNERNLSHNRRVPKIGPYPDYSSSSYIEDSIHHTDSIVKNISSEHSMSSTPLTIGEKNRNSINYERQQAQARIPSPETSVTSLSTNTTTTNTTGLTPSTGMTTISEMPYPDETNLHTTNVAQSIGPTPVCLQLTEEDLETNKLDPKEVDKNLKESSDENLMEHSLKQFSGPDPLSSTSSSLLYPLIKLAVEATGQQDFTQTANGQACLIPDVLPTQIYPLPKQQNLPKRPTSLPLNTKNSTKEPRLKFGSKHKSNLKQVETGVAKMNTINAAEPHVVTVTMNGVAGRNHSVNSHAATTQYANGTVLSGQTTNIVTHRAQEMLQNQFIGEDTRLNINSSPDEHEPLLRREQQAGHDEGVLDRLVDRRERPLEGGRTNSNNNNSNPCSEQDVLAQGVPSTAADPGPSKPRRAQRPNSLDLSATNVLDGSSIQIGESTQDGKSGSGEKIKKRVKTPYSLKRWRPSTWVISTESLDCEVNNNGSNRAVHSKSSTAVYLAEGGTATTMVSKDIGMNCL

SMILES: C=CC(=O)N1CCC[C@@H](n2nc(-c3ccc(OCc4cccc(C)n4)c(Cl)c3)c3c(N)ncnc32)C1 [CHMFL-EGFR-26]
- remaining binding at 1 µM (KIT(V559D,T670I)): 100%
- remaining binding at 1 µM (EGFR(E746-A750del)): 34%
- remaining binding at 1 µM (ARK5): 77%
- remaining binding at 1 µM (ULK1): 85%
- remaining binding at 1 µM (RET): 95%
- remaining binding at 1 µM (MELK): 41%
- remaining binding at 1 µM (DAPK2): 100%
- remaining binding at 1 µM [1]: 97%
- IC50 (HER2): 15.9 nM
- IC50 (BLK): 3.9 nM
- remaining binding at 1 µM (MTOR): 100%
- remaining binding at 1 µM (PDPK1): 97%
- remaining binding at 1 µM (MKNK2): 91%
- remaining binding at 1 µM (ICK): 90%
- remaining binding at 1 µM (TRKC): 100%
- remaining binding at 1 µM (CDC2L1): 86%
- remaining binding at 1 µM (PIP5K1C): 67%
- remaining binding at 1 µM (LTK): 94%
- remaining binding at 1 µM (PIK3CA(Q546K)): 83%
- remaining binding at 1 µM (PIK3CA(H1047Y)): 100%
- % control (FLT3(ITD,D835V)): 99%
- remaining binding at 1 µM (GRK3): 100%
- remaining binding at 1 µM (HUNK): 72%
- remaining binding at 1 µM (MAP3K3): 67%
- remaining binding at 1 µM (DLK): 78%
- remaining binding at 1 µM (BRAF(V600E)): 62%
- remaining binding at 1 µM (DDR1): 85%
- remaining binding at 1 µM [2]: 100%
- remaining binding at 1 µM (HIPK2): 100%
- remaining binding at 1 µM [3]: 98%
- remaining binding at 1 µM (BMPR2): 100%
- remaining binding at 1 µM (ERK4): 83%
- remaining binding at 1 µM (NEK1): 92%
- remaining binding at 1 µM (HPK1): 100%
- remaining binding at 1 µM (FAK): 90%
- remaining binding at 1 µM (WNK4): 86%
- remaining binding at 1 µM (DCAMKL3): 100%
- remaining binding at 1 µM (PFTAIRE2): 97%
